Columns and labels:
Type in all cases: functional, cell-based
HeLa = assay: Cytotoxicity against human HeLa cells assessed as reduction in cell viability incubated for 72 hrs by MTT assay
SK-OV-3 = assay: Cytotoxicity against human SKOV3 cells assessed as reduction in cell viability incubated for 72 hrs by MTT assay; conditions: SK-OV-3, 72 h
A549 = assay: Cytotoxicity against human A549 cells assessed as reduction in cell viability incubated for 72 hrs by MTT assay; conditions: A549, 72 h

Compound	IC50 (HeLa) [µM]	IC50 (SK-OV-3) [nM]	IC50 (A549) [nM]
CC[C@H]1CN2CCc3cc(OC)c(OC)cc3[C@@H]2C[C@@H]1C[C@H]1NCCc2c1[nH]c1ccccc21	0.1	3	
CC[C@H]1CN2CCc3c(cc(OC)c(OC)c3O)[C@@H]2C[C@@H]1C[C@H]1NCCc2c1[nH]c1ccccc21	8.2	200	3000
CC[C@H]1CN2CCc3c(cc(OC)c(OC)c3O)[C@@H]2C[C@@H]1C/C=[N+](/[O-])CC	> 10	5200	> 10000
COc1cc2c(cc1O)[C@@H]1C[C@@H]3CC=CC[C@H]3CN1CC2	9.2	13900	12500
CC[C@H]1CN2CCc3cc(OC)c(O)cc3[C@@H]2C[C@@H]1CCO	0.01	60	200
CC[C@H]1CN2CCc3cc(OC)c(OC)cc3[C@@H]2C[C@@H]1CCO	1.2	100	300
CC[C@H]1CN2CCc3c(cc(OC)c(OC)c3O)[C@@H]2C[C@@H]1CCO	5.3	3600	2100
CO[C@@H]1C=C[C@@]23c4cc5c(cc4CN(C[C@@H]2O)[C@H]3C1)OCO5 [(+)-HAEMANTHAMINE]	1.3	3700	3000
CC[C@H]1CN2CCc3cc(OC)c(OC)cc3[C@@H]2C[C@@H]1C[C@H]1NCCc2cc(O)c(OC)cc21 [CEPHAELINE]	7.6	100	3000
CC[C@H]1CN2CCc3cc(OC)c(OC)cc3[C@@H]2C[C@@H]1C[C@@H]1NCCc2cc(O)c(OC)cc21 [ISOCEPHAELINE]	9.4	3900	2700
CC[C@H]1CN2CCc3cc(OC)c(OC)cc3[C@@H]2C[C@@H]1C[C@H]1NCCc2c1[nH]c1ccc(O)cc21 [TUBULOSINE]	> 10	400	2100
